Test results taken from US12194080B2, “Methods for identification, assessment, prevention, and treatment of metabolic disorders using PM20D1 and N-lipidated amino acids” (Dana-Farber Cancer Institute, Inc., priority 2015, dated 2025).

Experiments:
mouse PM20D1 [1] = target: T1, mouse PM20D1 (Mus musculus, UniProt Q8C165); assay: In vitro PM20D1-catalyzed N-acyl amino acid hydrolysis; format: biochemical; details: N-acyl amide substrate 100 μM
T1 construct: Full-length mouse Pm20d1 cDNA (GE Dharmacon) was subcloned with an in-frame C-terminal 6× His and FLAG® tag; made in house; host or cells: 293A (HEK293A) cells stably infected with retrovirus
T1 sequence (Q8C165 25-503): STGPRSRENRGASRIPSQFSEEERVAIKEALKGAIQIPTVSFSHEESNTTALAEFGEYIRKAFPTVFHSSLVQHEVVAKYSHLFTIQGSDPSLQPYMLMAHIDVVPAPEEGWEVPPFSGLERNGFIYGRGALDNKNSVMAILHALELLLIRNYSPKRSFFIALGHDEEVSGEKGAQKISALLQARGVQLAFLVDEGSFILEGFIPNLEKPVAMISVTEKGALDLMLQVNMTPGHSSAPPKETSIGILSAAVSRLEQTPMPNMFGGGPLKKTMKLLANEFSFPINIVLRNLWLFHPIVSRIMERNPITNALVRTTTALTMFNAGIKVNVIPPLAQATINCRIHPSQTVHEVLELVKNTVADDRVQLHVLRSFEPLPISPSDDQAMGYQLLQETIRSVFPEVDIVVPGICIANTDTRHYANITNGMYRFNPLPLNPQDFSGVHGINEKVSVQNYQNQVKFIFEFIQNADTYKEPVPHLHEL
Method: (§1) The concentrated media was centrifuged to remove debris (600×g, 10 min, 4° C.) and the supernatant containing PM20D1-flag was decanted into a new tube. PM20D1-Flag was immunoaffinity purified overnight at 4° C. from the concentrated media using magnetic Flag-M2 beads (Sigma Aldrich). The beads were collected, washed three times in PBS, eluted with 3× Flag peptide ([…] in PBS, Sigma Aldrich), aliquoted, and stored at −80° C. For the purification of human PM20D1-flag, hPM20D1-flag plasmid (Origene) was transiently transfected into 293A cells. After two days, the media was changed, harvested 24 h later, concentrated, and purified exactly as described above.
(§2) In vitro PM20D1-catalyzed synthesis of N-acyl amino acids was measured by incubating purified PM20D1 protein with oleate (1.5 mM) and phenylalanine (0.1 mM) in PBS (to 100 μl final volume) at 37° C. for 1.5 hrs. In vitro PM20D1-catalyzed N-acyl amino acid hydrolysis was measured by incubating purified PM20D1 protein with the indicated N-acyl amino acid (0.1 mM) in PBS (to 100 μl final volume) at 37° C. for 1.5 hrs. Reactions were terminated by placing the vials at −80° C. and the products generated in vitro were analyzed by mass spectroscopy (MS).
(§3) Briefly, frozen serum (30 μl) for polar metabolomic analyses were extracted in 160 μl of 1:1 acetonitrile/methanol with inclusion of internal standard D3, ^15N-serine (1 nmol). Activity assays (100 μl) were extracted in 400 μl 1:1 acetonitrile/methanol. Following 30 s of thorough vortexing and 1 min of bath sonication, the polar metabolite fraction (supernatant) was isolated by centrifugation at 13,000×g for 10 min. Ten μl of this supernatant was analyzed by SRM-based targeted LC-MS/MS, or untargeted LC-MS.
(§4) For separation of polar metabolites, normal-phase chromatography was performed with a […] column (50 mm×4.60 mm, Phenomenex). Mobile phases were as follows: Buffer A, acetonitrile; Buffer B, 95:5 water/acetonitrile with 0.1% formic acid or 0.2% ammonium hydroxide with 50 mM ammonium acetate for positive and negative ionization mode, respectively. The flow rate for each run started at 0.2 ml/min for 2 min, followed by a gradient starting at 0% B and increasing linearly to 100% B over the course of 15 min with a flow rate of 0.7 ml/min, followed by an isocratic gradient of 100% B for 10 min at 0.7 ml/min before equilibrating for 5 min at 0% B with a flow rate of 0.7 ml/min. MS analysis was performed with an electrospray ionization (ESI) source on an Agilent 6430 QQQ LC—MS/MS. The capillary voltage was set to 3.5 kV, and the fragmentor voltage was set to 100 V. The drying gas temperature was 325° C., the drying gas flow rate was 10 l/min, and the nebulizer pressure was 45 psi. For polar targeted and untargeted metabolomic analysis, representative metabolites were quantified by SRM of the transition from precursor to product ions (corresponding to amino acid fragment) at associated collision energies. Several representative fragmentation ions are as follows: C18:1-Ala, 352>88; C18:1-Gly, 338>74; C18:1-Phe, 428>164; C18:1-Leu/Ile, 394>130; C20:4-Phe, 450>164; C20:4-Leu/Ile, 416>130. Untargeted LC-MS was performed by scanning a mass range of m/z 50-1200, and data were exported as mzdata files and uploaded to XCMSOnline (xcmsserver.nutr.berkeley.edu) to identify metabolites that were differentially changed. For targeted metabolomics analysis, metabolites were quantified by integrating the area under the peak and were normalized to internal standard values corresponding to 1 nmol D3, ^15N-serine.

[2] = test system: primary inguinal fat cells, primary BAT cells, C2C12 cells, and U2OS cells; assay: Uncoupled respiration cellular assays (variety of cell types); format: cell-based; details: N-acyl amino acids at 10-100 uM
Method: (§5) Cellular oxygen consumption rates were determined using an XF24 Extracellular Flux Analyzer (Seahorse Biosciences). Oligomycin was purchased from EMD Millipore, and FCCP and rotenone were purchased from Sigma. C2C12 or U2OS cells were seeded at 30,000 or 50,000 cells/well, respectively in an XF24 cell culture microplate (V7-PS, Seahorse Bioscience) and analyzed the following day. Primary iWAT or BAT adipocytes were seeded at 15,000 cells/well, differentiation was induced the following day as described, and the cells were analyzed on day 5. On the day of analysis, the cells were washed once with Seahorse respiration buffer (8.3 g/1 DMEM, 1.8 g/l NaCl, 1 mM pyruvate, 20 mM glucose, pen/strep), placed in 0.5 ml Seahorse respiration buffer, and incubated in a CO2-free incubator for 1 hr. Port injection solutions were prepared as follows (final concentrations in assay in parentheses): 10 μM oligomycin (1 μM final), […] amino acid (50 μM final), 2 μM FCCP (0.2 μM final), and 30 μM rotenone (3 μM final). The Seahorse program was run as follows: basal measurement, 3 cycles; inject port A (oligomycin), 3 cycles; inject port B (compounds), 8 cycles; inject port C (FCCP), 3 cycles; inject port D (rotenone), 3 cycles. Each cycle consisted of mix 4 min, wait 0 min, and measure 2 min. For data expressed as a percentage of oligomycin-treated basal, the respiration at cycle 6 was normalized to 100%, and the maximum respiration at any time point between cycles 7 and 15 inclusive was used.

C2C12 cells = assay: Cellular oxygen consumption rate (uncoupled respiration), C2C12 cells; format: cell-based, mouse; details: 50 μM, after oligomycin 1 μM
Method: C2C12, U2O5, and 293A cells were cultured in DMEM with 10% FBS and pen/strep. Primary inguinal (iWAT) and brown (BAT) adipocytes were obtained as follows. The stromal-vascular fraction of inguinal (iWAT) pad from 4-12 week old male mice was dissected, minced, and digested for 45 min. at 37° C. in PBS containing 10 mM CaCl2, 2.4 U/ml dispase II (Roche), and 1.5 U/ml collagenase D (Roche). The stromal-vascular fraction of brown fat (BAT) pads from newborn (P1-P14) pups was dissected, minced, and digested for 45 min at 37° C. in PBS containing 1.3 mM CaCl2, 120 mM NaCl, 5 mM KCl, 5 mM glucose, 100 mM HEPES, 4% BSA, and 1.5 mg/ml collagenase B (Roche). Digested tissue was diluted with adipocyte culture media (DMEM/F-12, GlutaMAX™ supplement, Life Technologies, with 10% FBS and pen/strep) and centrifuged (600×g for 10 min.). The pellet was resuspended in 10 ml adipocyte culture media, strained through a 40 μm filter, and plated. Differentiation was induced by application of an adipogenic cocktail containing 5 μg/ml insulin (Sigma), 5 μM dexamethasone (Sigma), 250 μM isobutylmethylxanthine (Sigma), and 1 μM rosiglitazone (Cayman) for 2 days. Two days after induction, cells were maintained in adipocyte culture media containing 5 μg/ml insulin and 1 μM rosiglitazone.
as §5

mouse PM20D1 [3] = target: T1, mouse PM20D1; assay: In vitro PM20D1-catalyzed synthesis of N-acyl amino acids; format: biochemical; details: for substrate of the PM20D1 synthase reaction: head group 100 μM, oleate or arachidonate 1.5 mM, C18:1-CoA 0.7 mM
Method: as §1, §2, §3, §4

Structure (SMILES) | uncoupled respiration in cells [2] | uncoupling activity (uncoupled respiration) (C2C12 cells) | further results
CCCCCCCC/C=C\CCCCCCCC(=O)N[C@@H](CO)C(=O)O [C18:1-Ser] |  |  | substrate of the PM20D1 hydrolysis reaction (mouse PM20D1 [1]): substrates
CCCCCCCC/C=C\CCCCCCCC(=O)NCC(=O)O [C18:1-Gly] |  |  | substrate of the PM20D1 hydrolysis reaction (mouse PM20D1 [1]): substrates
CCCCC/C=C\C/C=C\CCCCCCCC(=O)N[C@@H](Cc1ccccc1)C(=O)O [N-linoleoyl phenylalanine] | increased uncoupled respiration |  | 
CCCCC/C=C\C/C=C\C/C=C\C/C=C\CCCC(=O)NCCc1ccc(O)c(O)c1 [N-arachidonoyl dopamine, reference compound] | inactive | did not stimulate uncoupled respiration | 
CCCCCCCC/C=C\CCCCCCCC(=O)N[C@@H](Cc1ccccc1)C(N)=O [N-oleoyl phenylalanine amide, (S)-N-(1-amino-1-oxo-3-phenylpropan-2-yl)oleamide] | inactive | completely abrogated uncoupling activity | 
N[C@@H](Cc1ccccc1)C(=O)O [Phe, phenylalanine] |  |  | substrate of the PM20D1 synthase reaction (mouse PM20D1 [3]): most efficiently converted to its corresponding N-acyl amino acid product
CCCCCCCC/C=C\CCCCCCCC(=O)N[C@@H](CCC(N)=O)C(=O)O [C18:1-Gln, Oleoyl-L-glutamine] |  | possessed the uncoupling activity | 
N[C@@H](CCC(=O)O)C(=O)O [glutamate] |  |  | substrate of the PM20D1 synthase reaction (mouse PM20D1 [3]): not substrates for the synthase reaction
CCCCCCCCCCCCCCCC(=O)N[C@@H](Cc1ccccc1)C(=O)OC [N-palmitoyl phenylalanine methyl ester] | inactive |  | 
CCCCC/C=C\C/C=C\C/C=C\C/C=C\CCCC(=O)N[C@H](C)CO [methanandamide, R(+)-methanandamide, reference compound] | inactive | did not stimulate uncoupled respiration | 
CCCCC/C=C\C/C=C\C/C=C\C/C=C\CCCC(=O)N[C@@H](CO)C(=O)O [N-arachidonoyl serine] | increased uncoupled respiration |  | 
CCCCCCCC/C=C\CCCCCCCC(=O)NCCO [N-oleoyl ethanolamine, reference compound] | inactive |  | substrate of the PM20D1 hydrolysis reaction (mouse PM20D1 [1]): does not hydrolyze; substrate of the PM20D1 hydrolysis reaction (mouse PM20D1 [1]; listed as C18:1-EA): not a PM20D1 substrate
CCCCCCCC/C=C\CCCCCCCC(=O)N[C@@H](CCCCN)C(=O)O [C18:1-Lys, Oleoyl-L-lysine] |  | not | 
CCCCCCCC/C=C\CCCCCCCC(=O)N[C@@H](Cc1ccccc1)C(=O)OC [N-oleoyl phenylalanine methyl ester, Methyl oleoyl-L-phenylalaninate] | inactive | completely abrogated uncoupling activity | 
CCCCC/C=C\C/C=C\C/C=C\C/C=C\CCCC(=O)NC [N-arachidonoyl N-methyl amide, N-methyl N-arachidonoyl amide, reference compound] | inactive | did not stimulate uncoupled respiration | 
CCCCC/C=C\C/C=C\C/C=C\C/C=C\CCCC(=O)NCCS(=O)(=O)O [N-arachidonoyl taurine, reference compound] | inactive | did not stimulate uncoupled respiration | 
CC(=O)[O-].CC(=O)[O-].[Zn+2] [Zn(OAc)2] |  |  | effect on PM20D1 reaction rate (mouse PM20D1 [3]; 2 mM added to the reaction in PBS): does not augment reaction rate and may decrease the rate
CCCCC/C=C\C/C=C\C/C=C\C/C=C\CCCC(=O)NCCCC(=O)O [N-arachidonoyl gamma amino butyric acid] | increased uncoupled respiration | stimulate uncoupled respiration | 
CCCCCC[C@@H](O)C/C=C\CCCCCCCC(=O)N[C@@H](C)c1ccccc1 [(S)-alpha-methylbenzyl ricinoleamide, reference compound] | inactive |  | 
CCCCC/C=C\C/C=C\C/C=C\C/C=C\CCCCOC(CO)CO [noladin ether, reference compound] | inactive |  | 
NCCO [ethanolamine] |  |  | substrate of the PM20D1 synthase reaction (mouse PM20D1 [3]): not substrates for the synthase reaction
